Measurements taken from patent US11952364B2, “TRK inhibitors useful as anticancer drugs” (TYLIGAND BIOSCIENCE (SHANGHAI) LIMITED, priority 2018, dated 2024).

Experiments:
[1] = Metabolic stability in liver microsomes (overall statement); type: in vitro ADME; settings: statement in words
Source text: According to standard methods conventional in the art for in vitro metabolic stability studies, for example those protocols described in Kems, Edward H. and Di Li (2008). Drug-like Properties: Concepts. Structure Design and Methods: from ADME to Toxicity Optimization. San Diego: Academic Press; Di, Li et al., Optimization of a Higher Throughput Microsomal Stability Screening Assay for Profiling Drug Discovery Candidates, J. Biomol. Screen. 2003, 8(4), 453., the metabolic stability test in liver microsomes of the present compound was performed analogously as follows.
The in vitro metabolic stability of the compound in 5 species (mouse, rat, dog, monkey, and human) was evaluated by liver microsomal stability test. 0.1M potassium phosphate buffer solution (pH 7.4, containing 1.0 mM EDTA) was prepared. The test compound and the control compound were prepared into a 10 mM DMSO solution, and then 10 μL of the 10 mM DMSO compound solution was added to 190 μL of acetonitrile to prepare a 500 μM compound solution. […]
The natural logarithm of the residue percentage at each time point was subjected to linearly regression as a factor of incubation time to obtain Slope k, and then the liver microsome clearance rate (CLint^mic) and in vitro half-life (T½) were calculated according to the following formula: […]

P450 3A4 = P450 3A4 (Homo sapiens (Human), UniProt P08684); experiment: Cytochrome P450 inhibition in human liver microsomes; type: in vitro ADME
Protocol: The test compounds were evaluated by detecting the metabolism of human liver microsomes for the substrates of different subtypes of Cyp450. The liver microsomes (Sekisui XenoTech, LLC., human liver microsomes, cat. #H0610) were slowly melted on ice, and 0.482 mL of the liver microsome solution (20 mg/mL) was added to 30 mL of 100 mM potassium phosphate solution to prepare a liver microsome working solution with a concentration of 0.316 mg/mL. The test compound and specific inhibitors of different Cyp450 subtypes (as a control) were prepared into 10 mM DMSO solutions, and then 20 μL of the 10 mM DMSO compound solution was added to 180 μL of acetonitrile to obtain a 1 mM compound solution. 2 μL of such 1 mM test compound or inhibitor solution was added to 150 μL of 0.316 mg/mL liver microsome working solution to obtain a 13.16 μM compound working solution. 45.3 mg of NADPH (SIGMA, cat. #V900362) was weighted and added into 13.59 mL of deionized water to prepare a 4 mM NADPH aqueous solution. 0.2 mL of 2 mg/mL internal standard stock solution (dexamethasone in acetonitrile) was added to 1000 mL of acetonitrile (SIGMA, cat. #271004) to prepare a reaction stop solution and stored at 4° C. […] The single point IC50 values were calculated according to the following formula. […]

[2] = system: TRK Fusion-Positive Cancers; settings: cited from earlier work

Sequence of P450 3A4 (P08684 whole entry, the tested form may be a part): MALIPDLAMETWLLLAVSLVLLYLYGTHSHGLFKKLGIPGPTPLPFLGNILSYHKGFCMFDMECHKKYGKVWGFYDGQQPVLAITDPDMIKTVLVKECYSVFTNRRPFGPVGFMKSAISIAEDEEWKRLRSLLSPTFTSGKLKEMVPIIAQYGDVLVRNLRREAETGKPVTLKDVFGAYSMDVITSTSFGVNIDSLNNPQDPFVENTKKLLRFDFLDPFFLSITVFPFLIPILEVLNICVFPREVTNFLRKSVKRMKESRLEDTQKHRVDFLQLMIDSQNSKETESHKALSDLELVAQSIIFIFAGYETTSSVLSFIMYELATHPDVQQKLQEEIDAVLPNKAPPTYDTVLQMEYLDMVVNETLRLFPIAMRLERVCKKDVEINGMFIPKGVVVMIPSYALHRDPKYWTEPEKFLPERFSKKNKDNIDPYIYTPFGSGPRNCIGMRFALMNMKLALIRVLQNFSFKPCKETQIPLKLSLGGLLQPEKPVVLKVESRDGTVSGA

With COc1ccc(C(=O)Nc2ccc(Oc3cc4cnn(C)c4cc3-c3cn[nH]c3)c(F)c2)c(=O)n1-c1ccc(F)cc1 [Example 12, N-(3-fluoro-4-(1-methyl-6-(1H-pyrazol-4-yl)-1H-indazol-5-yloxy)phenyl)-1-(4-fluorophenyl)-6-methoxy-2-oxo-1,2-dihydropyridine-3-carboxamide] the “metabolic stability in liver microsomes compared with Merestinib” value [1] was “significantly improved metabolic stability in liver microsomes” and the IC50 (P450 3A4) was over 10 µM.
In the case of O=C(Nc1cnn2ccc(N3CCC[C@@H]3c3cc(F)ccc3F)nc12)N1CC[C@H](O)C1 [LOXO-101, Larotrectinib, reference compound], the “patients had no disease progression” value ([2]; after 1 year of treatment) is given as 55%, the “patients still responded to treatment” value ([2]; after 1 year of treatment) is given as 71% and the “overall patient response rate (ORR)” value ([2]; patients, more than ten tumor types) is given as 75%. For the same compound, the complete response ([2]; patients) was 13% and the partial response ([2]; patients) was 62%.
